Here are results for four compounds from publication PMC9739815, “Akt/mTOR Targeting Activity of Resveratrol Derivatives in Non-Small Lung Cancer” (Molecules, 2022).

SMILES strings stand for the structures.

For data set [1], the system named is A549 cells. The data set is described as follows: MTT cell viability assay, A549 cells. It counts as cell-based. The following applies: Homo sapiens, 24 h, 0–200 µM, read-out: IC50 ± SEM of NSCLC cells, A549. The procedure: (§1) NSCLC cells were cultured overnight and treated with various concentrations (0–200 µM) of resveratrol derivatives (RD1-RD5) and resveratrol for 24 h, and then cell viability was analyzed by the 3-(4, 5-dimethylthiazolyl-2)-2, 5-diphenyltetrazolium bromide (MTT) assay to evaluate the percentage of cell viability. All of the data were calculated on the basis of the results of three replicated samples. […] The difference of the structure at C-4 was that the hydroxyl group of RD2 was modified to the methoxy group of RD3 and at C-3, the methoxy group of RD2 was changed to the hydroxyl group of RD3. […] Furthermore, resveratrol decreased cell viability in NSCLC cells (A549, H23, and H460) with the IC50 at more than 200 µM which was the same RD3 (Figure 2a–d). This different action on cancer cells as a result of chemical structure modification has provided an insight for the structure–activity relationship that may facilitate the further development of the potent compound from the lead structure of resveratrol derivatives. Cell viability was investigated by MTT colorimetric assay. All cell lines were cultured at the density of 1 × 10^4 cells per well in a 96-well tissue culture plate and incubated in an incubator. After that, cells were treated with various concentrations of RD1-RD5 for 24 h at 37 °C and analyzed by the MTT assay according to the manufacturer’s protocol (Sigma Chemical, St. Louis, MO, USA). In calculating the cell viability by a microplate reader (Anthros, Durham, NC, USA), the measured absorbance of treated cells were divided by the value of untreated cells and are reported as a percentage.

Data set [2] concerns H23 cells. The data set can be described thus: MTT cell viability assay, H23 cells. The data set is classed as cell-based. The settings on record: Homo sapiens, NCI-H23, 24 h, 0–200 µM, read-out: IC50 ± SEM of NSCLC cells, H23. Here is the method:
as §1
A general note: Tetrazolium assays rely on reduction of a dye to a coloured formazan, in cell work by metabolically active cells.

Data set [3] has as its system H460 cells. The data set is described as follows: MTT cell viability assay, H460 cells. It counts as cell-based. The following applies: Homo sapiens, NCI-H460, 24 h, 0–200 µM, read-out: IC50 ± SEM of NSCLC cells, H460. The procedure: as §1
Data set [4] has as its system p-Akt/Akt in H23 cells. The data set is described as follows: Western blot of p-Akt/Akt, H23 cells. The data set is classed as cell-based, human. The following applies: 100 μM, 12 h, vs untreated control. The procedure:
(§2) NSCLC cells (A549 and H23) were treated with RD2 and RD3 (10–100 μM) for 12 h. After which, all cells were collected and the expression levels of Akt, p-Akt, mTOR, and p-mTOR were investigated by Western blot analysis (Figure 5a, Figure 6a, Figure 7a and Figure 8a). […] Immunofluorescence staining of Akt, p-Akt, mTOR, and p-mTOR was performed in RD2 and RD3 treated cells. The results further confirm the effect of RD2 and RD3 on the Akt/mTOR pathway.
(§3) Western blotting was used to detect the presence of specific protein. Cells were seed at a density of 4 × 10^5 cells/well in 6 well plates overnight. Cells were treated with various concentrations RD1-RD5 were treated for 12 h. After treatment, the apoptosis cells were collected by centrifuging media with 1500 rpm for 5 min and aspirating supernatants. Then, cells were washed with cold 1× PBS and incubated with 1X RIPPA 40 µL containing 10× RIPA buffer 100 µL, protease inhibitors (PI) 100 µL, PMSF 10 µL, and Triton × 10 µL for 30 min on ice. BCA protein assay kit from Pierce Biotechnology (Rockford, IL, USA) analyzed protein concentrations. The extracted proteins were separated by 7.5–10% sodium dodecyl sulfate polyacrylamide gel electrophoresis (SDS-PAGE) and transferred to polyvinylidene difluoride membrane (PVDF). Then, the membranes were blocked with 5% non-fat milk powder for 2 h. After that, they were incubated with primary antibody at 4 °C Akt (#9272), phosphorylated Akt (#4060), mTOR (#2983S), and p-mTOR (#5536S) overnight. The membranes were washed with Tris-buffered saline/Tween 20 3 times and incubated with secondary antibodies for 2 h. Finally, the protein bands were detected using chemiluminescence substrate and exposed by Chemiluminescent ImageQuant LAS4000. Protein bands were analyzed using Image J software.

Data set [5] concerns DP cells. The data set can be described thus: MTT cell viability assay, normal dermal papilla (DP) cells. It counts as cell-based. The following applies: 24 h. Here is the method: To confirm the selective cytotoxicity of resveratrol derivatives (RD2 and RD3) in cancer cells, resveratrol derivatives (RD2 and RD3) and resveratrol were determined for the cytotoxic profile in normal human cells, dermal papilla (DP).
Cell viability was investigated by MTT colorimetric assay. All cell lines were cultured at the density of 1 × 10^4 cells per well in a 96-well tissue culture plate and incubated in an incubator. After that, cells were treated with various concentrations of RD1-RD5 for 24 h at 37 °C and analyzed by the MTT assay according to the manufacturer’s protocol (Sigma Chemical, St. Louis, MO, USA). In calculating the cell viability by a microplate reader (Anthros, Durham, NC, USA), the measured absorbance of treated cells were divided by the value of untreated cells and are reported as a percentage.

The subject of data set [6] is p-Akt/Akt in A549 cells. The data set is described as follows: Western blot of p-Akt/Akt, A549 cells. The data set is classed as cell-based, human. The following applies: A549 cells, 100 μM, 12 h, vs untreated control. The procedure:
as §2, §3

The subject of data set [7] is p-mTOR/mTOR in H23 cells. The data set is described as follows: Western blot of p-mTOR/mTOR, H23 cells. It counts as cell-based, human. The settings on record: 100 μM, 12 h, vs untreated control. The procedure:
as §2, §3
Background: Immunoblotting shows a protein as a band on a membrane.

The subject of data set [8] is p-mTOR/mTOR in A549 cells. The data set is described as follows: Western blot of p-mTOR/mTOR, A549 cells. The data set is classed as cell-based, human. The following applies: 100 μM, 12 h, vs untreated control. Here is the method: as §2, §3

As to `COc1cc(CCc2cc(C)c(OC)c(O)c2)cc(OC)c1O` [RD1, 5-(4-hydroxy-3,5-dimethoxyphenethyl)-2-methoxy-3-methylphenol], the figures for the concentration for half-maximal inhibition (IC50) in data set [1], in data set [2] and in data set [3] were 164 ± 26.2 µM, 129 ± 8.91 µM and over 200 µM, respectively.

On to `COc1ccc(CCc2cc(OC)c(O)c(OC)c2)cc1O` [RD4, 4-(3-hydroxy-4-methoxyphenethyl)-2,6-dimethoxyphenol], for which the figures for the half-maximal inhibitory concentration (IC50) in data set [1], in data set [2] and in data set [3] were 113 ± 25.5 µM, 109 ± 17.3 µM and 122 ± 28.6 µM, respectively.

Take `COc1cc(CCc2cc(OC)c(O)c(OC)c2)cc(OC)c1O` [RD5, 4,4′-(ethane-1,2-diyl)bis(2,6-dimethoxyphenol)]: the 50% inhibitory concentration (IC50) (as a rule, the point on the concentration scale where inhibition reaches its midpoint) in data set [1] came out at 185 ± 58.7 µM; in data set [2] it was 82.6 ± 13.1 µM; in data set [3], 153 ± 59.6 µM.

With `Oc1ccc(C=Cc2cc(O)cc(O)c2)cc1` [Resveratrol, 3,5,4′-trihydroxystilbene], the “p-Akt/Akt protein expression levels” value in data set [4] and in data set [6] was “significant decrease” in each case. For the same compound, in data set [5] (normal human dermal papilla cells), the “effect on cell viability percentages in DP cells” value was “did not significantly affect”. Further, the IC50 was over 200 µM in data set [5] (Human dermal papilla cell, 0–200 µM, read-out: IC50 ± SEM of DP cells); over 200 µM in data set [1]; over 200 µM in data set [2]; over 200 µM in data set [3]. The “p-mTOR/mTOR protein expression levels” value in data set [7] and in data set [8] was “significant decrease” throughout.
